Molecules are shown by their SMILES.

Common to all, as to assay type: biochemical
Test [1] concerns the target T1, human IP6K1 (Homo sapiens, UniProt Q92551).
T1 construct: human IP6K1 (1-441) gene; GST; made in house; host or cells: Sf-9 insect cells
As to the kind of experiment: IP6K enzyme inhibitory assay (ADP-Glo Kinase Assay), human IP6K1. To be noted: compound concentration 0.1 μM; read-out: ADP-Glo method inhibitory rate (%) human IP6K1. The method in brief:
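Inhibition of human IP6K1 was determined with Promega's ADP-Glo Kinase Assay in 384 well plates. Test compound diluted in assay buffer (20 mM HEPES (pH 7.5), 6 mM MgCl2, 0.01% Tween-20, 1 mM DTT) was added at 2 μL, then 2 μL of enzyme started the reaction for 60 min at room temperature. Next came 3 μL ADP-Glo solution for 30 min and 6 μL Kinase-Detection solution for 60 min. Luminescence was read on an Envision plate reader.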
(ADP-Glo first removes unused ATP, then detects ADP through luciferase.)

For test [2], the target named is T2, human IP6K3 (Homo sapiens, UniProt Q96PC2).
T2 construct: human IP6K3 (1-410) gene; made in house; host or cells: BL21 (DE3) Escherichia coli
T2 sequence (Q96PC2 1-410): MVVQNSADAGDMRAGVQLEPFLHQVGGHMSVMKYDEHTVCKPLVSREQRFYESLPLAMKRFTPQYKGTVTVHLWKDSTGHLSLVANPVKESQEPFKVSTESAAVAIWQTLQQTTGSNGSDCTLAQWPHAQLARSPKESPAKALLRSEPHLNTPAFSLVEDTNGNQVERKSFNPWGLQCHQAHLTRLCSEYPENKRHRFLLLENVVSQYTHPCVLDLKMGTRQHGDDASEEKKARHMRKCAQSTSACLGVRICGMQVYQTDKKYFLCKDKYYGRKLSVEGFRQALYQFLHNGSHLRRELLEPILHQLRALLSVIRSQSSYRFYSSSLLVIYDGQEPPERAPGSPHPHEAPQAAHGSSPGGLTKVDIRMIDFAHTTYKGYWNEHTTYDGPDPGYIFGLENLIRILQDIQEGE
As to the kind of experiment: IP6K enzyme inhibitory assay (ADP-Glo Kinase Assay), human IP6K3. To be noted: compound concentration 0.1 μM; read-out: ADP-Glo method inhibitory rate (%) human IP6K3. In outline: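 Recombinant human IP6K (IP6K3 residues 1-410, E. coli, Ni-NTA purified) incubated with compound in 20 mM HEPES pH 7.5, 6 mM MgCl2, 0.01% Tween-20, 1 mM DTT for 60 min at room temperature. ADP formed read as luminescence by ADP-Glo.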

For test [3], the target named is T3, human IP6K2 (Homo sapiens, UniProt Q9UHH9).
T3 construct: human IP6K2 (1-426) gene; GST; made in house; host or cells: Sf-9 insect cells
T3 sequence (Q9UHH9 1-426): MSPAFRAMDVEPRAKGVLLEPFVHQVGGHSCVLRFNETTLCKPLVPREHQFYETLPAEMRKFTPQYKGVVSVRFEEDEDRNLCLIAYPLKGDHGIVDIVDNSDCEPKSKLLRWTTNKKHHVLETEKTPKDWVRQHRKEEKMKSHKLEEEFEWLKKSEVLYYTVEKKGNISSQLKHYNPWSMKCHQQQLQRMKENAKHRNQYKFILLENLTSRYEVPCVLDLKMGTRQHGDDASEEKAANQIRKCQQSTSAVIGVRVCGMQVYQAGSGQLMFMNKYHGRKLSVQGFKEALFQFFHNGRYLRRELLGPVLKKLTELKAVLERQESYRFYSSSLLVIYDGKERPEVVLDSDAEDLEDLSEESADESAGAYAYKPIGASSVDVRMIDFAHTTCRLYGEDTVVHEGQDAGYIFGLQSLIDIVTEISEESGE
In words: IP6K enzyme inhibitory assay (ADP-Glo Kinase Assay), human IP6K2. To be noted: compound concentration 0.1 μM; read-out: ADP-Glo method inhibitory rate (%) human IP6K2. The method in brief:
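The inhibitory activity against human IP6K2 was measured with Promega's ADP-Glo Kinase Assay in 384 well plates. Test compound, diluted in assay buffer (20 mM HEPES (pH 7.5), 6 mM MgCl2, 0.01% Tween-20, 1 mM DTT), was added at 2 μL. Adding 2 μL of diluted enzyme started the reaction, which ran for 60 min at room temperature. Next, 3 μL ADP-Glo solution (30 min) and 6 μL Kinase-Detection solution (60 min) were added, and luminescence was read on an Envision plate reader.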

T1 sequence (Q92551 whole entry): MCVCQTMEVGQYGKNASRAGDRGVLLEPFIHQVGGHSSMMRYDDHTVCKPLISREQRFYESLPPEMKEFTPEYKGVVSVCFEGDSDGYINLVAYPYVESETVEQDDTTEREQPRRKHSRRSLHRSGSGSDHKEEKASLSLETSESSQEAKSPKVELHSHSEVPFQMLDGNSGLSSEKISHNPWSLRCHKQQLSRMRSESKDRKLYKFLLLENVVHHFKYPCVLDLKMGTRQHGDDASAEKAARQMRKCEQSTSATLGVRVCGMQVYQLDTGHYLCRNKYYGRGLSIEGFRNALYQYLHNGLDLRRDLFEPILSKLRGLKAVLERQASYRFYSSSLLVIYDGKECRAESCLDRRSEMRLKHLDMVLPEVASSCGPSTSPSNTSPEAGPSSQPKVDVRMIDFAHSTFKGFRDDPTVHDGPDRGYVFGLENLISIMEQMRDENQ

As to `O=C(O)c1ccc2c(c1)[C@]1(CC[C@@H](Oc3ccc(F)c(Cl)c3)CC1)C(=O)N2` [Example 67, (1r,4r)-4-(3-chloro-4-fluorophenoxy)-2′-oxo-1′,2′-dihydrospiro[cyclohexane-1,3′-indole]-5′-carboxylic acid], the figures for the inhibition at 0.1 µM in test [1], in test [2] and in test [3] were 93%, 97% and 98%, respectively.
For `O=C(O)c1ccc2c(c1)[C@]1(CC[C@@H](Oc3ccc(F)cc3Cl)CC1)C(=O)N2` [Example 68, (1r,4r)-4-(2-chloro-4-fluorophenoxy)-2′-oxo-1′,2′-dihydrospiro[cyclohexane-1,3′-indole]-5′-carboxylic acid], in that order: 93%, 98% and 98%.
Regarding `O=C(O)c1ccc2c(c1)[C@]1(CC[C@@H](Oc3ccc(Cl)c(F)c3)CC1)C(=O)N2` [Example 69, (1r,4r)-4-(4-chloro-3-fluorophenoxy)-2′-oxo-1′,2′-dihydrospiro[cyclohexane-1,3′-indole]-5′-carboxylic acid], the inhibition at 0.1 µM in test [1] worked out at 100%; in test [2], 96%; in test [3] it was 100%.
As to `COc1ccc(O[C@H]2CC[C@@]3(CC2)C(=O)Nc2ccc(C(=O)O)cc23)c(C#N)c1` [Example 70, (1r,4r)-4-(2-cyano-4-methoxyphenoxy)-2′-oxo-1′,2′-dihydrospiro[cyclohexane-1,3′-indole]-5′-carboxylic acid], the inhibition at 0.1 µM in test [1], in test [2] and in test [3] was 99% in each case.
With `N#Cc1cc(O[C@H]2CC[C@@]3(CC2)C(=O)Nc2ccc(C(=O)O)cc23)ccc1Cl` [Example 71, (1r,4r)-4-(4-chloro-3-cyanophenoxy)-2′-oxo-1′,2′-dihydrospiro[cyclohexane-1,3′-indole]-5′-carboxylic acid], the inhibition at 0.1 µM in test [1] was found to be 88%; in test [2] it was 95%; in test [3] it was 90%.
For `N#Cc1ccc(O[C@H]2CC[C@@]3(CC2)C(=O)Nc2ccc(C(=O)O)cc23)c(Cl)c1` [Example 72, (1r,4r)-4-(2-chloro-4-cyanophenoxy)-2′-oxo-1′,2′-dihydrospiro[cyclohexane-1,3′-indole]-5′-carboxylic acid], in that order: 99%, 97% and 97%.
For `N#Cc1ccc(O[C@H]2CC[C@@]3(CC2)C(=O)Nc2ccc(C(=O)O)cc23)cc1Cl` [Example 73, (1r,4r)-4-(3-chloro-4-cyanophenoxy)-2′-oxo-1′,2′-dihydrospiro[cyclohexane-1,3′-indole]-5′-carboxylic acid], in that order: 98%, 91% and 97%.
On the same counts, the results for `O=C(O)c1ccc2c(c1)[C@]1(CC[C@@H](Oc3ccccc3C(F)(F)F)CC1)C(=O)N2` [Example 74, (1r,4r)-2′-oxo-4-(2-(trifluoromethyl)phenoxy)-1′,2′-dihydrospiro[cyclohexane-1,3′-indole]-5′-carboxylic acid] are 93%, 92% and 92%.
With `O=C(O)c1ccc2c(c1)[C@]1(CC[C@@H](Oc3cccc(C(F)(F)F)c3)CC1)C(=O)N2` [Example 75, (1r,4r)-2′-oxo-4-(3-(trifluoromethyl)phenoxy)-1′,2′-dihydrospiro[cyclohexane-1,3′-indole]-5′-carboxylic acid], the inhibition at 0.1 µM in test [1] was 89%; in test [2], 89%; in test [3], 94%.
On to `O=C(O)c1ccc2c(c1)[C@]1(CC[C@@H](Oc3cc(F)cc(C(F)(F)F)c3)CC1)C(=O)N2` [Example 76, (1r,4r)-4-(3-fluoro-5-(trifluoromethyl)phenoxy)-2′-oxo-1′,2′-dihydrospiro[cyclohexane-1,3′-indole]-5′-carboxylic acid], for which the values for the inhibition at 0.1 µM in test [1], in test [2] and in test [3] were 81%, 86% and 86%, respectively.
Regarding `O=C(O)c1ccc2c(c1)[C@]1(CC[C@@H](Oc3cccc(C(F)(F)F)c3F)CC1)C(=O)N2` [Example 77, (1r,4r)-4-(2-fluoro-3-(trifluoromethyl)phenoxy)-2′-oxo-1′,2′-dihydrospiro[cyclohexane-1,3′-indole]-5′-carboxylic acid], the values for the inhibition at 0.1 µM in test [1], in test [2] and in test [3] were 94%, 98% and 99%, respectively.
On the same counts, the results for `O=C(O)c1ccc2c(c1)[C@]1(CC[C@@H](Oc3cc(C(F)(F)F)ccc3F)CC1)C(=O)N2` [Example 78, (1r,4r)-4-(2-fluoro-5-(trifluoromethyl)phenoxy)-2′-oxo-1′,2′-dihydrospiro[cyclohexane-1,3′-indole]-5′-carboxylic acid] are 96%, 98% and 96%.
For `O=C(O)c1ccc2c(c1)[C@]1(CC[C@@H](Oc3ccc(F)c(C(F)(F)F)c3)CC1)C(=O)N2` [Example 79, (1r,4r)-4-(4-fluoro-3-(trifluoromethyl)phenoxy)-2′-oxo-1′,2′-dihydrospiro[cyclohexane-1,3′-indole]-5′-carboxylic acid], in that order: 87%, 97% and 89%.
With `Cn1nc(O[C@H]2CC[C@@]3(CC2)C(=O)Nc2ccc(C(=O)O)cc23)cc1C(F)(F)F` [Example 80, (1r,4r)-4-((1-methyl-5-(trifluoromethyl)-1H-pyrazol-3-yl)oxy)-2′-oxo-1′,2′-dihydrospiro[cyclohexane-1,3′-indole]-5′-carboxylic acid], the inhibition at 0.1 µM in test [1] is 62%; in test [2], 89%; in test [3], 82%.
`Cc1cc(Cl)cnc1O[C@H]1CC[C@]2(CC1)C(=O)Nc1ccc(C(=O)O)nc12` [Example 81, (1s,4s)-4-((5-chloro-3-methylpyridin-2-yl)oxy)-2′-oxo-1′,2′-dihydrospiro[cyclohexane-1,3′-pyrrolo[3,2-b]pyridine]-5′-carboxylic acid]: the figures for the inhibition at 0.1 µM in test [1], in test [2] and in test [3] were 96%, 100% and 100%, respectively.
For the molecule `COc1cc(Cl)ccc1O[C@H]1CC[C@@]2(CC1)C(=O)Nc1ccc(C(=O)O)cc12` [Example 82, (1r,4r)-4-(4-chloro-2-methoxyphenoxy)-2′-oxo-1′,2′-dihydrospiro[cyclohexane-1,3′-indole]-5′-carboxylic acid], the figures for the inhibition at 0.1 µM in test [1], in test [2] and in test [3] were 98%, 99% and 101%, respectively.
Turning to `COc1cc(Cl)ccc1O[C@H]1CC[C@]2(CC1)C(=O)Nc1ccc(C(=O)O)cc12` [Example 83, (1s,4s)-4-(4-chloro-2-methoxyphenoxy)-2′-oxo-1′,2′-dihydrospiro[cyclohexane-1,3′-indole]-5′-carboxylic acid], the inhibition at 0.1 µM was 97% in test [1], 102% in test [2] and 100% in test [3].

Source of the values: US10968178B2, “IP6K inhibitors” (TAKEDA PHARMACEUTICAL COMPANY LIMITED, priority 2017, dated 2021).
